Test results taken from patent US20250136934A1, “PRODUCTION OF INDUCED MIDBRAIN DOPAMINERGIC PROGENITOR CELLS FROM PLURIPOTENT STEM CELLS” (NUWACELL BIOTECHNOLOGIES CO., LTD., priority 2023, published 2025).

Experiments:
imDAP cells = test: Specification of imDAP cells under BMP and TGF-β signaling inhibition (FACS FOXA2+/OTX2+, NKX2.1 qRT-PCR, LMX1A immunostaining); assay type: cell-based, human; details: for specification of imDAP cells (FIGS. 13A-13D taken together): LDN193189 at 0.2 μM Day 0 to Day 6 and SB431542 at 50 μM Day 0 to Day 4 or Day 0 to Day 6; for specification of imDAP cells (FIGS. 12A-12C taken together): LDN193189 at 0.5 μM and SB431542 at 20 μM, among all combinations of concentrations tested; for specification of imDAP cells (FIGS. 11A-11C taken together): LDN193189 from D0 to D6 and SB431542 from D0 to D4, among all time windows tested
FOXA2+ imDAP cells = test: FACS analysis of FOXA2 expression of imDAP cells derived from hiPSCs; assay type: cell-based, human
Protocol: • 1. Individualize and collect cells by either Accutase or TrypLE treatment. • 2. Wash cells with 1 ml PBS and pellet cells at 250×g for […]. • 3. Remove supernatant, add ˜200 μl of 4% PFA, mix and fix for 10 min at RT. • 4. Pellet cells at 350×g for 5 min. • 5. Wash cells by 1 ml of FACS buffer and pellet cells at 350×g for 5 min. • 6. Remove supernatant, add 200 μl/tube of FACS buffer/0.1% Triton X, mix for 10 min at RT. • 7. Wash cells by 1 ml of FACS buffer and pellet cells at 350×g for 5 min. • 8. Remove supernatant, add 200 μl/tube of primary antibody diluted in FACS buffer, mix gently, and incubate for 30 min at RT. • 9. Wash cells by 1 ml of FACS buffer and pellet cells at 350×g for 5 min. • 10. Remove supernatant, and add 200 μl of secondary antibody diluted in FACS buffer, mix gently, and incubate for 30 min at RT. • 11. Wash cells by 1 ml of FACS buffer and pellet cells at 300×g for 5 min. • 12. Remove supernatant, add 200 μl of FACS buffer, and run samples on the flow cytometer.
On Day-1, EB formation (Stage 1) was carried out by dissociating hiPSCs (Nuwacell) to form a single-cell suspension and resuspending it in Epic medium (Nuwacell, #RP01001) containing 10 μM Blebbistatin (MCE, #HY-13441) in T25 flasks on a belly dancer and culturing the cells overnight. On Day 0, ventral midbrain floor plate differentiation (Stage 2) was initiated by changing the medium to a Stage 2-1 differentiation medium containing DMEM: F12/B27 (plus Vitamin A) (98:2, v/v) as basal medium and supplemented with 0.2 μM LDN193189, 10 μM SB431542, 1 μg/mL SHH C24II and 1.25 μM CHIR99021 and culturing the cells for 3 Days. From Day 3, the basal medium was changed to DMEM: F12/B27 (minus Vitamin A) (98:2, v/v), and CHIR concentration was boosted to 7.5 μM until Day 10 (Stage 2-2). SB431542 was withdrawn on Day 4, and SHH C24II was withdrawn on Day 8. From Day 10 (Stage 2-3), the medium was changed to a differentiation medium containing DMEM: F12/B27 (minus Vitamin A) (98:2, v/v) as basal medium and supplemented with 0.2 μM LDN193189 and 3 μM CHIR99021. During the cell culture, each of the differentiation media was replaced every day. On Day 16 (at the end of S2-3), EBs were dissociated for single cells and collected for analysis. The cells of each group were stained with FOXA2-PE antibody (BD, #561689), the percentage of FOXA2+ imDAP cells were analyzed by flow cytometry (FIG. 5). The above experiment was repeated for three times and the derived imDAP cells were named as Lot1, Lot2 and Lot3, respectively.
On Day-1, EB formation (Stage 1) was carried out by dissociating hiPSCs (Nuwacell) to form a single-cell suspension and resuspending it in Epic medium (Nuwacell, #RP01001) containing 10 μM Blebbistatin (MCE, #HY-13441) in T25 flasks on a belly dancer and culturing the cells overnight. On Day 0, ventral midbrain floor plate differentiation (Stage 2) was initiated by changing the medium to a Stage 2-1 differentiation medium containing DMEM: F12/B27 (plus Vitamin A) (98:2, v/v) as basal medium and supplemented with 0.2 μM LDN193189, 20 μM SB431542, 1.2 μM CHIR99021, and 1 μg/mL SHH C24II or the combination of SHH agonists including 500 ng/mL SHH C24II, 2 μM Purmorphamine and 10 nM SAG and culturing the cells for 3 days. From Day 3, the basal medium was changed to DMEM: F12/B27 (minus Vitamin A) (98:2, v/v). Cells were exposed to Boost-CHIR concentration of 7.5 μM starting from Day 4 to Day 6 (Stage 2-2), followed by a low CHIR concentration of 1.2 μM (Stage 2-3) until Day 10. […]

Row | Molecule | specification of imDAP cells (FIGS. 13A-13D taken together) (imDAP cells) | specification of imDAP cells (FIGS. 12A-12C taken together) (imDAP cells) | specification of imDAP cells (FIGS. 11A-11C taken together) (imDAP cells) | percentage of cells positive for FOXA2 (FOXA2+ imDAP cells; 4-step protocol, SHH agonist in medium Day 0 to Day 10, analysis Day 16) | percentage of FOXA2+ cells (FOXA2+ imDAP cells; without Vitamin A throughout differentiation versus Vitamin A only D0-3 or D0-2)
1 | c1ccc2c(-c3cnn4cc(-c5ccc(N6CCNCC6)cc5)cnc34)ccnc2c1 [LDN193189] | best results | best results | best results | – | –
2 | NC(=O)c1ccc(-c2nc(-c3ccc4c(c3)OCO4)c(-c3ccccn3)[nH]2)cc1 [SB431542] | best results | best results | best results | – | –
3 | SHH C24II: sonic hedgehog agonist polypeptide, SEQ ID NO: 2 | – | – | – | 85.71% | –
4 | Vitamin A | – | – | – | – | higher percentage
